Where a name gives a salt, the structure may show the parent alone.
Experiments:
[1] = doses of 5 to 30 mg memantine hydrochloride (Sang et al., 2002); cited from earlier work
[2] = tested on: mechanical hyperalgesia induced by diabetes; assay: Chronic intrathecal treatment, mechanical hyperalgesia induced by diabetes; format: in vivo; conditions: chronic treatment administered intrathecally
Source text: (§1) It is relatively better tolerated by patients.

[3] = tested on: Tyr^1472 residue of the NR2B sub-unit of the NMDA receptor; assay: Chronic intrathecal treatment, phosphorylation of Tyr1472 residue in diabetes pain context; format: in vivo; conditions: chronic treatment administered intrathecally
Source text: as §1

Row | SMILES | tolerance by patients [1] | mechanical hyperalgesia induced by diabetes [2] | phosphorylation of the Tyr1472 residue [3]
1 | CC12CC3CC(C)(C1)CC(N)(C3)C2 [memantine hydrochloride] | well supported and tolerated by the patients | – | –
2 | CC(C)(C)n1nc(-c2ccc(Cl)cc2)c2c(N)ncnc21 [PP2, 4-amino-5-(4-chlorophenyl)-7-(dimethylethyl) pyrazolo [3,4-d] pyrimidine] | – | abolishes the mechanical hyperalgesia induced by diabetes | reduces phosphorylation of the Tyr^1472 residue
